Here are results for 15 compounds from patent publication US6071908A (priority 1995, dated 2000).

Molecules are shown by their SMILES. Where a name gives a salt, the structure may show the parent alone. Read-outs that look alike come from different tables or passages of the source. Where only a bound is given, the exact number is not on record here.

One assay deals with UV4 cells. As to the kind of experiment: cells. The assay is classed as cell-based. The conditions noted are these: Cricetulus griseus.
For the next assay, the system named is SKOV3 cells. Description: cells. In kind it is cell-based. The conditions noted are these: Homo sapiens.
Setting [1] is: UV4, light or radiation study, 4 h, read-out: IC50, P (unirradiated prodrug).
Setting [2] is: UV4, 4 h, read-out: IC50, E (authentic effector).
[3] abbreviates: SK-OV-3, light or radiation study, 4 h, read-out: IC50, P (unirradiated prodrug).
The mark [4] stands for this setting: SK-OV-3, 4 h, read-out: IC50, E (authentic effector).

For orientation: IC50 means the midpoint of a concentration-inhibition curve. As to `C[N+](C)(Cc1ccc([N+](=O)[O-])cc1)c1ccc2c(c1)N(S(C)(=O)=O)CC2CCl` (centres unmarked) [Compound 11, 3-(chloromethyl)-6-[N,N-dimethyl-N-(4-nitrobenzyl)-ammonio]-1-(methanesulfonyl)indoline chloride], in the assay with UV4 cells (setting [1]), the IC50 was 1140 ± 122 µM.

With `CN(C)c1ccc2c(c1)N(S(C)(=O)=O)CC2CCl` (centres unmarked) [Compound 12, reference compound], in the assay with UV4 cells (setting [2]), the 50% inhibitory concentration (IC50) is 15 ± 6 µM.

For the compound `C[N+](C)(CCNC(=O)c1cccc2cc3ccccc3nc12)Cc1ccc([N+](=O)[O-])cc1` [Compound 15, 2-[N-(acridin-4-yl)carbonyl]aminoethyl-(dimethyl)-4-nitrobenzylammonium bromide], the IC50 with UV4 cells (setting [1]) and in the assay with SKOV3 cells (setting [3]) was greater than 150 µM in each case.

As for `C[N+](C)(CCNC(=O)c1cccc2cc3ccccc3nc12)Cc1ccc([N+](=O)[O-])s1` [Compound 16, 2-[N-(acridin-4-yl)carbonyl]aminoethyl-(dimethyl)-(5-nitro-2-thienyl)methylammonium chloride], the values for the concentration for half-maximal inhibition (IC50) with UV4 cells (setting [1]) and with SKOV3 cells (setting [3]) were 40 ± 8 µM and 169 ± 58 µM, respectively.

As to `Cc1cccc2c(N)c3cccc(C(=O)NCC[N+](C)(C)Cc4ccc([N+](=O)[O-])cc4)c3nc12` [Compound 17, 2-[N-(9-amino-5-methylacridin-4-yl)carbonyl]aminoethyl-(dimethyl)-4-nitrobenzylammonium bromide], the IC50 amounted to 0.78 µM with UV4 cells (setting [1]) and 4 ± 0.1 µM with SKOV3 cells (setting [3]).

Take `Cc1cccc2c(N)c3cccc(C(=O)NCC[N+](C)(C)Cc4ccccc4[N+](=O)[O-])c3nc12` [Compound 18, 2-[N-(9-amino-5-methylacridin-4-yl)carbonyl]aminoethyl-(dimethyl)-2-nitrobenzyl]ammonium chloride]: the IC50 with UV4 cells (setting [1]) stood at 3.1 µM.

As to `Cc1cccc2c(N)c3cccc(C(=O)NCC[N+](C)(C)Cc4ccc([N+](=O)[O-])s4)c3nc12` [Compound 19, 2-[N-(9-amino-5-methylacridin-4-yl)carbonyl]aminoethyl-(dimethyl)-5-nitro-2-thienylmethylammonium chloride], in the assay with UV4 cells (setting [1]), the IC50 amounted to 0.16 ± 0.03 µM.

With `Cc1cccc2c(N)c3cccc(C(=O)NCC[N+](C)(C)Cc4nc(N5CCOCC5)sc4[N+](=O)[O-])c3nc12` [Compound 20, 2-[N-(9-amino-5-methylacridin-4-yl)carbonyl]aminoethyl-(dimethyl)-2-[4-morpholino-5-nitro-4-thiazolylmethyl]ammonium chloride], in the assay with UV4 cells (setting [1]), the IC50 is 1 ± 0.3 µM.

On to `Cc1cccc2c(N)c3cccc(C(=O)NCC[N+](C)(C)Cc4ccc([N+](=O)[O-])n4C)c3nc12` [Compound 21, 2-(N-[9-amino-5-methylacridin-5-yl]carbonyl)aminoethyl-(dimethyl)[1-methyl-5-nitro-2-pyrrolyl]methylammonium chloride], for which, in the assay on UV4 cells (setting [1]), the IC50 was 2 ± 0.4 µM.

As to `Cc1cccc2c(N)c3cccc(C(=O)NCC[N+](C)(C)Cc4c([N+](=O)[O-])ncn4C)c3nc12` [Compound 22, 2-(N-[9-amino-5-methylacridin-4-yl]carbonyl)aminoethyl-(dimethyl)-(1-methyl-4-nitro-5-imidazolyl)methylammonium chloride], in the assay with UV4 cells (setting [1]), the IC50 was 1.9 ± 0.4 µM.

For the compound `CN(C)CCNc1ccc(NCC[N+](C)(C)Cc2ccc([N+](=O)[O-])cc2)c2c1C(=O)c1c(O)ccc(O)c1C2=O` [Compound 27, 1-[(2-(4-nitrobenzyl)dimethylammonium)ethylamino]-4-[(2-dimethylamino)ethylamino]-5,8-dihydroxy-9,10-anthracenedione chloride], the IC50 with UV4 cells (setting [1]) was 0.27 ± 0.04 µM; in the assay with SKOV3 cells (setting [3]), 9.7 µM.

For `CN(C)CCNC(=O)c1cccc2cc3ccccc3nc12` [Compound 37, N-[(dimethylamino)ethyl]acridine-4-carboxamide, reference compound], the values for the IC50 with UV4 cells (setting [2]) and in the assay on SKOV3 cells (setting [4]) were 0.49 ± 0.11 µM and 3.4 ± 0.8 µM, respectively.

For the compound `Cc1cccc2c(N)c3cccc(C(=O)NCCN(C)C)c3nc12` [Compound 38, (N,N-dimethylaminoethyl)-9-amino-5-methylacridine-4-carboxamide, reference compound], the IC50 was 0.011 µM in the assay with UV4 cells (setting [2]) and 0.046 ± 0.002 µM in the assay with SKOV3 cells (setting [4]).

Turning to `CN(C)CCNc1ccc(NCCN(C)C)c2c1C(=O)c1c(O)ccc(O)c1C2=O` [Compound 46, 1,4-bis[(2-dimethylamino)-ethylamino]-5,8-dihydroxy-9,10-anthracenedione, reference compound], the IC50 was 0.0021 µM in the assay with UV4 cells (setting [2]) and 0.074 ± 0.0004 µM with SKOV3 cells (setting [4]).

In the case of `NCCNCCCNC(=O)c1cccc2cc3ccccc3nc12` [Compound 47, N-[3-[(2-Aminoethyl)amino]propyl]acridine-4-carboxamide trihydrochloride, reference compound], the IC50 in the assay on UV4 cells (setting [2]) came to 1.6 ± 0.4 µM; in the assay on SKOV3 cells (setting [4]) it was 1.6 ± 0.3 µM.
